Results reported in patent US6962930B1, “Compounds, compositions and method suitable for amelioration of withdrawal syndromes and withdrawal-induced brain damage” (Lohocla Research Corporation, priority 1997, dated 2005).
Read-outs that look alike come from different tables or passages of the source.

How the values were obtained:
[1] = system: heat shock protein (HSP72) in the hippocampus of C57BL/6 mice; assay: KA-induced increase in HSP72, Western blot; type: in vivo; conditions: 100 mg/kg i.p. 30 min before KA 30 mg/kg i.p., hippocampus at 24 hours
Description: See, for example, Gonzales, M. F. et al., “HEAT SHOCK PROTEINS AS MARKERS OF NEURAL INJURY,” Mol. Brain Res., 6 93–100 (1989), the relevant portions of which are incorporated herein by reference.
Groups of male C57BL/6 mice separately received either (1) no injections (Naive), (2) KA injections (30 mg/kg, i.p.), (3) 100 mg/kg MeO-DCUKA administered intraperitoneally, or (4) a pretreatment of 100 mg/kg MeO-DCUKA administered (vehicle as in Example 9) intraperitoneally about 30 minutes before receiving an injection of KA (30 mg/kg, i.p.). All of the mice were killed 24 hours later, their brains removed and the hippocampus dissected. HSP72 protein levels were determined in sodium dodecylsulfate (SDS)-solubilized hippocampal lysates by SDS-PAGE electrophoretic separation and subsequent Western blot analysis using antibodies specific for HSP72/73 proteins. Immunoreactive bands were visualized on film using enhanced chemiluminescence and quantitated by image analysis.

[2] = molecular target: T1, strychnine-insensitive glycine binding site on the NMDA receptor (Rattus norvegicus, UniProt P35439); assay: [3H]5,7-DCKA binding to rat cortical membranes; conditions: 20 nM [3H]5,7-DCKA
T1 construct: from tissue; host or cells: rat cerebral cortex, crude synaptic (buffy coat) membranes
Description: Male Sprague-Dawley rats were killed, their brains removed, and their cerebral cortices dissected and binding of [^3H]5,7-dichlorokynurenate ([^3H]5,7-DCKA) assayed. [^3H]5,7-DCKA binding assays were performed in crude synaptic membranes prepared by a modification of the method of Jones, et al., J. Pharmacol. Methods, 21 161–168 (1989) the relevant disclosures of which are incorporated herein by reference. The pelleted “buffy coat”fraction was obtained by centrifugation and frozen at about −80° C. for at least 18 hours. On the day that the binding assays were performed, the pelleted membranes were resuspended in 50 mM HEPES-KOH buffer (pH 7.8) containing 0.08% TRITON® X-100. After stirring for about 30 min at about 4° C., the membranes were pelleted by recentrifugation and then washed twice by resuspension in buffer and centrifugation.
Binding assays were performed in 0.5 ml volume using 150–200 μg of tissue, 20 nM [^3H]5,7-DCKA and 3–300 μM DCUKA or MeO-DCUKA or 1–100 μM DCUK-OMe (all concentrations are final concentrations in 0.6% dimethyl sulfoxide (DMSO)). Incubations were performed for about 45 min at about 4° C. followed by termination by centrifugation. Bound radioactivity was quantitated by liquid scintillation spectroscopy. Non-specific binding was defined with 1 mM glycine.

[3] = molecular target: voltage-sensitive sodium channels; assay: [3H]BTX binding to rat cortical synaptosomes
[4] = system: ethanol withdrawal-induced seizures in C57BL/6 mice; assay: Ethanol withdrawal-induced seizures; type: in vivo; conditions: i.p. at 0700, 1100 and 1400 hours; (±)HA-966 3, 10 or 17 mg/kg; 7-Cl kynurenic acid 10, 17 or 30 mg/kg; carbamazepine 17, 30 or 50 mg/kg
Text: Male C57BL/6 mice were housed individually. One group of mice were each given a measured amount of liquid diet (BioServ) containing 6.7% ethanol (v/v) and a second, control group of mice each received the same diet with maltodextrin substituted isocalorically for ethanol, as their sole nutrient source for 7 days. A description of such a test can be found in Grant, K. A., et al., “ETHANOL WITHDRAWAL SEIZURES AND THE NMDA RECEPTOR COMPLEX,” Eur. J. Pharmacol., 176 289–296, (1990), the relevant disclosures of which are incorporated herein by reference. Pair-fed mice were given a volume of liquid diet equal to the average volume that the ethanol-fed mice consumed on the previous day. This treatment regimen produces mice that are functionally tolerant to and physically dependent on ethanol. Beginning at 0700 hours on the eighth day of the diet, ethanol-containing diet was replaced with control liquid diet (“withdrawal”).
Withdrawal seizure severity was assessed by measuring the incidence of handling-induced and spontaneous seizures, which were rated on a rating scale of 0 to 4, modified from a rating scale described by Grant, K. A., et al. in the above cited article. The rating scale was as follows: 0, little or no reaction; 1, slight jerkiness upon handling; 2, excitability increasing in magnitude to a clonic-tonic seizure; 3, spontaneous or instantaneous clonic-tonic seizure; 4, death while in a seizure. The mice were rated for seizure severity at 2, 4, 6, 7, 8, 9, 10, 11, 12 and 24 hours after ethanol withdrawal. Groups of ethanol-fed mice were injected intraperitoneally at 0700, 1100 and 1400 hours with saline, 3, 10 or 17 mg/kg (±)HA-966 (FIG. 5A) or 10, 17 or 30 mg/kg 7-Cl kynurenic acid (FIG. 5B).
Male C57BL/6 mice were fed ethanol in a liquid diet and the withdrawal seizure severity was assessed as described in EXAMPLE 5. Groups of ethanol-fed mice received a single injection (i.p.) of either vehicle (4% Tween-80, 0.5% carboxymethylcellulose in 0.9% saline) alone or of 100 mg/kg DCUK-OMe suspended in the vehicle administered at 0900 hours. The results are presented in FIG. 6A as the median withdrawal scores of vehicle-injected (N=14) or DCUK-OMe injected (N=6) mice in which * denotes P<0.05, statistically compared to vehicle-injected mice, in the Mann-Whitney U test. FIG. 6B presents the same data as the total withdrawal score, defined as the area enclosed by the curve connecting median withdrawal scores plotted against time as in FIG. 6A. The mean total withdrawal scores±SEM for the vehicle-injected group and DCUK-OMe-injected groups are plotted in which * denotes P<0.05, statistically compared to vehicle-injected mice, by the Student t-test.

[5] = system: naive C57BL/6 mice; assay: Accelerating rotarod, C57BL/6 mice; type: in vivo; conditions: 50 mg/kg i.p., 15 to 120 min after injection
Description: Naive C57BL/6 mice were trained to remain on an accelerating rotarod (diameter 3 cm, 0–30 rpm over 5 min) for six consecutive trials. A description of this test for the acute incoordinating/ataxic effects of sedative/hypnotic drugs such as ethanol can be found in Hoffman, P. L., et al., Life Sciences, 41 611–619 (1987), the relevant disclosures of which are incorporated herein by reference.
The amount of time the mice remained on the rotarod during their last trial was used as their “base-line” score. The mice were then treated with saline (n=10) or 50 mg/kg (±)HA-966 (n=5). The length of time the mice remained on the rotarod was redetermined at 15, 30, 60, 90, and 120 min after drug injection (i.p.). Results for each mouse at each time point were expressed as a ratio (percentage) of their pre-injection base-line time.

[6] = molecular target: T2, NR1a/NR2A recombinant receptors (Homo sapiens, UniProt Q05586); assay: NMDA-induced currents in oocytes expressing NR1a/NR2A; type: cell-based; conditions: 100 μM NMDA, 50 μM DCUKA, increasing glycine up to 100 μM
T2 construct: expressed in transfected cells; host or cells: Xenopus laevis oocytes, nuclear cDNA injection
Description: (§1) Oocytes were obtained from Xenopus laevis frogs (Nasco or Xenopus I) kept in aquarium tanks at 19–21° C., on a 12 hr light/dark cycle. Mature females were anesthetized by immersion for approximately 30 min in a 0.12% 3-aminobenzoic acid ethyl ester solution, a small incision was made in the abdominal wall and a piece of ovary was removed and placed in Modified Barth's solution (MBS; in mM) containing 88 NaCl, 1 KCl, 10 HEPES, 0.82 MgSO4, 2.4 NaHCO3, 0.91 CaCl2, 0.33 Ca(NO3)2 (pH 7.5). To facilitate manual dissection of oocytes, a section of ovary was transferred from MBS to a hypertonic buffer containing 108 mM NaCl, 2 mM KCl, 2 mM EDTA, 10 mM HEPES, pH 7.5 and theca and epithelial layers of mature oocytes (stages V and VI) were removed with surgical forceps. The follicular layer was removed by a 10 min immersion in 0.5 mg/ml of collagenase in buffer containing 83 mM NaCl, 2 mM KCl, 1 mM MgCl2 and 5 mM HEPES.
(§2) Human NR1a, NR2A and NR2B cDNAs in pCDNA-1Amp were transformed and amplified in XL-1 Blue cells and purified with the MaxPrep Qiagen kit. Oocytes were injected with cDNA into the nucleus in the following concentrations: NR1a/2A cDNAs 0.75 ng/30 nl 1:1 ratio, NR1a/2B cDNAs 3.0 ng/30 nl: 1:1 ratio. Injections were made with micropipettes (10 μm tip diameter) connected to a Drummond micropipettor attached to a micromanipulator. After injection, oocytes were individually placed in wells of 96-well microtiter plates containing incubation medium (MBS supplemented with 10 mg/l streptomycin, 10,000 U/l penicillin G, 50 mg/l gentamicin, 2 mM sodium pyruvate, 0.5 mM theophylline) that had been sterilized by passage through a […]. Oocytes were incubated at 19° C. for 2 to 4 days after injection.
(§3) Oocytes were placed in a rectangular chamber (approximately […]) and perfused (2 ml/min) with frog Ringer (in mM) containing 115 NaCl, 2.5 KCl, 1.8 CaCl2, 10 HEPES (pH 7.2). […] Control responses were always measured before and after addition of the DCUKA. […] Data are expressed as the % inhibition of the agonist response obtained in the absence of the drug.

[7] = molecular target: T3, NR1a/NR2B recombinant receptors (Homo sapiens, UniProt Q05586); assay: NMDA-induced currents in oocytes expressing NR1a/NR2B; type: cell-based; conditions: 100 μM NMDA, 50 μM DCUKA, increasing glycine
T3 construct: expressed in transfected cells; host or cells: Xenopus laevis oocytes, nuclear cDNA injection
Description: as §1, §2, §3

[8] = system: naive Swiss-Webster mice; assay: Accelerating rotarod, Swiss-Webster mice; conditions: i.p.; DCUK-OMe 100 or 500 mg/kg, diazepam 1 mg/kg, carbamazepine 50 mg/kg
[9] = system: Swiss-Webster mice; assay: Ethanol-induced loss of righting reflex; type: in vivo; conditions: i.p. 30 minutes before ethanol; DCUK-OMe 100 mg/kg, DZP 1 mg/kg
Description: Swiss-Webster mice were pretreated (i.p.) with 100 mg/kg DCUK-OMe or 1 mg/kg diazepam (DZP) (in 5% Tween-80, 20% Intralipid) 30 minutes before receiving an i.p. administration of ethanol (either 2.3 or 3.2 g/kg, 20% v/v in saline.). The duration of the ethanol-induced loss of righting reflex (defined as the inability of the mouse to right itself when placed on its back in a trough) was measured. […] Since withdrawal signs are many times evident in individuals whose blood ethanol levels are dropping but are far from zero, the DCUK compounds would have an advantage over DZP in that the CNS depressant effects of ethanol would not be accentuated by DCUK compounds if the DCUK compounds are used in an alcohol-intoxicated individual.

[10] = molecular target: T1, strychnine-insensitive glycine binding site on the NMDA receptor; conditions: none* = no displacement at 64 μM carbamazepine; taken from McCabe et al. 1993; cited from earlier work
[11] = depolarizing conditions (135 mM KCl), read-out: IC50 (μM) [3H]BTX binding, values in parentheses
[12] = non-depolarizing conditions, none = no displacement at 100 μM, read-out: IC50 (μM) [3H]BTX binding

| SMILES | IC50 [2] | IC50 [3, 11] | IC50 [3, 12] | ethanol withdrawal seizure severity [4] | further results |
| --- | --- | --- | --- | --- | --- |
| COc1ccccc1N(C(=O)Nc1cc(C(=O)O)nc2cc(Cl)cc(Cl)c12)c1ccccc1 [MeO-DCUKA] | 35 µM | 30 µM | 64 µM | – | KA-induced increase in HSP72 protein levels [1]: prevented |
| NC1CCN(O)C1=O (racemic) [(±)HA-966, 3-amino-1-hydroxypyrrolidin-2-one] | – | – | – | did not significantly reduce seizure severity | rotarod performance (ataxia/incoordination) [5]: impaired in their ability to remain on the rotarod at all time points tested |
| O=C(O)c1cc(=O)c2c(Cl)cc(Cl)cc2[nH]1 [5,7-DCKA, 5,7-dichlorokynurenate, reference compound] | 0.11 µM | – | – | – | reversal by glycine of inhibition of NMDA-induced currents [6]: competitively antagonizes NMDA receptors regardless of subunit composition; reversal by glycine of inhibition of NMDA-induced currents [7]: competitively antagonizes NMDA receptors regardless of subunit composition; IC50 (μM) [3H]BTX binding ([3]; non-depolarizing conditions, none = no displacement at 100 μM): none |
| CN1C(=O)CN=C(c2ccccc2)c2cc(Cl)ccc21 [diazepam, reference compound] | – | – | – | – | rotarod performance (ataxia/incoordination) [8]: produced significant incoordination; duration of ethanol-induced loss of righting reflex (LORR) [9]: significant (*P<0.05) enhancement |
| O=C(O)c1cc(O)c2ccc(Cl)cc2n1 [7-Cl kynurenic acid] | – | – | – | did not significantly reduce seizure severity | – |
| NC(=O)N1c2ccccc2C=Cc2ccccc21 [Carbamazepine, carbamazepine, reference compound] | – | 56 µM | 71 µM | no significant reduction of severity or the duration of the signs of withdrawal | IC50 (μM) [3H]5,7-DCKA binding [10]: none* |
